# Results from patent US4011138A, “Process for the preparation of cholesterol esterase” (Kyowa Hakko Kogyo Co., Ltd., priority 1974, dated 1977).
# System: cholesterol esterase
# Experiment: Substrate specificity: relative activity of cholesterol esterase on cholesterol esters
# Type: biochemical, Pseudomonas fluorescens
# Settings: activity on cholesterol linoleate defined as 100; 37° C, 30 minutes, pH 7.5
# Procedure: The determination of the enzyme activity on cholesterol linoleate is carried out by the following method.
# A mixture having the following composition is prepared and shaken at 37° C for 30 minutes. […]
# During the above-described operation, the substrate cholesterol linoleate is hydrolyzed by the action of cholesterol esterase into cholesterol and linoleic acid, and subsequently the formed cholesterol is oxidized to cholestenone by the action of cholesterol oxidase. After 30 minutes of shaking, the mixture is immediately subjected to the determination of residual unreacted cholesterol linoleate by Zurkowsky's method [Clinical Chemistry 10, 451 (1964)]. Then, the amount of the reacted cholesterol linoleate is calculated. The enzyme activity is expressed by "unit." A "unit" of enzyme activity is defined as that amount of enzyme which will decompose 1 μmole of cholesterol linoleate in 1 minute under the above-described conditions. The enzyme activities on other cholesterol esters are variable depending upon the kind of substrates and are determined in the similar manner.
row,SMILES,Relative activity
1,CC(=O)O[C@H]1CC[C@@]2(C)C(=CC[C@H]3[C@@H]4CC[C@H]([C@H](C)CCCC(C)C)[C@@]4(C)CC[C@@H]32)C1 [Cholesterol acetate],80
2,CCCCCCCCCCCCCCCC(=O)O[C@H]1CC[C@@]2(C)C(=CC[C@H]3[C@@H]4CC[C@H]([C@H](C)CCCC(C)C)[C@@]4(C)CC[C@@H]32)C1 [Cholesterol palmitate],26
3,CCCCC/C=C\C/C=C\CCCCCCCC(=O)O[C@H]1CC[C@@]2(C)C(=CC[C@H]3[C@@H]4CC[C@H]([C@H](C)CCCC(C)C)[C@@]4(C)CC[C@@H]32)C1 [Cholesterol linoleate],100
4,CCCCCCCC/C=C\CCCCCCCC(=O)O[C@H]1CC[C@@]2(C)C(=CC[C@H]3[C@@H]4CC[C@H]([C@H](C)CCCC(C)C)[C@@]4(C)CC[C@@H]32)C1 [Cholesterol oleate],93
5,CCCCCCCCCCCCCCCCCC(=O)O[C@H]1CC[C@@]2(C)C(=CC[C@H]3[C@@H]4CC[C@H]([C@H](C)CCCC(C)C)[C@@]4(C)CC[C@@H]32)C1 [Cholesterol stearate],58

# System: cholesterol esterase
# Experiment: Inhibitory effects of various substances on the enzyme activity
# Type: biochemical, Pseudomonas fluorescens
# Settings: not given
row,SMILES,activity of the enzyme inhibited by heavy metal ions
1,O=S(=O)([O-])[O-].[Cu+2] [CuSO4],inhibited
2,[Cl][Hg][Cl] [HgCl2],inhibited
3,O=[N+]([O-])[O-].[Ag+] [AgNO3],inhibited

# Same assay, conditions: 0.1 ml of 4 mM solution of the substance added, kept at 37° C for 15 minutes; substrate cholesterol linoleate, 37° C for 10 minutes; ratio of residual to initial cholesterol linoleate
row,SMILES,Inhibition ratio (%)
1,O=C(O)CN(CCN(CC(=O)O)CC(=O)O)CC(=O)O [Ethylenediaminetetraacetic acid],0
2,c1cnc2c(c1)ccc1cccnc12 [o-Phenanthroline],0

# Same assay, conditions: cholesterol esterase, 4000 µM
row,SMILES,Inhibition ratio (%)
1,[Cl-].[Cl-].[Zn+2] [ZnCl2],0
2,[Cl][Mn][Cl] [MnCl2],0
3,O=S(=O)([O-])[O-].[Fe+2] [FeSO4],0
4,[Ca+2].[Cl-].[Cl-] [CaCl2],0
5,[Ba+2].[Cl-].[Cl-] [BaCl2],0
6,"c1ccc(-c2ccccn2)nc1 [2,2'-Dipyridyl]",0
7,O=S(=O)([O-])[O-].[Cu+2] [CuSO4],100
8,[Cl][Hg][Cl] [HgCl2],100
9,O=[N+]([O-])[O-].[Ag+] [AgNO3],20
10,"O=C(O)c1cc[c]([Hg][Cl])cc1 [p-Chloromercuri benzoic acid (p-CMB), p-Chloromercuri benzoic acid]",0

# System: Pseudomonas fluorescens KY 3955 (FERM-P No. 2611) ATCC 31156
# Experiment: Cholesterol esterase activity of culture filtrates with fatty acids or fatty acid esters added to the fermentation medium
# Type: cell-based
# Settings: additive at 5 g/l in soybean meal fermentation medium, 30° C for 24 hours; None = 20
row,SMILES,Activity (cholesterol esterase activity of culture filtrate) [unit/l]
1,CCCCC/C=C\C/C=C\CCCCCCCC(=O)O [linoleic acid],310
2,CCCCCCCC/C=C\CCCCCCCC(=O)O [oleic acid],170
3,CCCCC/C=C\C/C=C\CCCCCCCC(=O)OCC(COC(=O)CCCCCCC/C=C\C/C=C\CCCCC)OC(=O)CCCCCCC/C=C\C/C=C\CCCCC [trilinolein],250
4,CCCCCCCC/C=C\CCCCCCCC(=O)OCC(COC(=O)CCCCCCC/C=C\CCCCCCCC)OC(=O)CCCCCCC/C=C\CCCCCCCC [triolein],200
5,CCCCCCCCCCCCCCCCCC(=O)O [stearic acid],230
